How the values were obtained:
[1] = biological target: T1, PPWD1 (Homo sapiens, UniProt Q96BP3); test: chymotrypsin coupled PPIase assay, PPWD1 inhibition; format: biochemical; settings: result in words
T1 sequence (Q96BP3 1-646): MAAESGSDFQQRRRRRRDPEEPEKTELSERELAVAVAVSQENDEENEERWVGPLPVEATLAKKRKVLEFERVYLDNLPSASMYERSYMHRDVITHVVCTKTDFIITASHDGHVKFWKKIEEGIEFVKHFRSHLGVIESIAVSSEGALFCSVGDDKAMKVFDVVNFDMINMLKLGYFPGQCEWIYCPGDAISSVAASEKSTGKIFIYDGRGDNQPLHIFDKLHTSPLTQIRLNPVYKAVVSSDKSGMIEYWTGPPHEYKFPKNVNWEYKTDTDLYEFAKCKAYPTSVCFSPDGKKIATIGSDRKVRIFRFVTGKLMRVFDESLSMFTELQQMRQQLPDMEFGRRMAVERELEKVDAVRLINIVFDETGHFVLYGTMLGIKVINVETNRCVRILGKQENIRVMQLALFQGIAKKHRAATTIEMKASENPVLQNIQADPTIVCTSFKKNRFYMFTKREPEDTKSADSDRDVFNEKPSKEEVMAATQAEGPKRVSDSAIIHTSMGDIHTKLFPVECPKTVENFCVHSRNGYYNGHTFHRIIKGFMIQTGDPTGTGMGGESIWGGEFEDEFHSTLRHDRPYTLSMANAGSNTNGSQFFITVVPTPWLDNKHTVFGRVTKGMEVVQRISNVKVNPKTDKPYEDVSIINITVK
Procedure: Following the synthesis of the indicated library members, in vitro inhibition (IC50) assays of these hits were conducted to obtain IC50 inhibitory data. For the IC50 assays, a chymotrypsin coupled PPIase assay using Suc-AAPF-AMC as the peptide substrate was used, whereby isomerization of a peptide substrate Suc-AAPF-AMC from the cis to trans conformation allowed for proteolysis via excess a-chymotrypsin, releasing the C-terminal coumarin fluorophore. […] Other non-inhibitor library members were also checked for binding via SPR, but produced the same profile as the prolyl isomerase assay.
Subsequently, to determine if the compounds could both access the S2 pocket and display CypD specificity, JOMBtrans and compound 49 were screened against the 10 other cyclophilins with reported prolyl isomerase activity. […] Co-crystal structures of JOMBtrans and 49 were solved with CypD. […] Three further H-bonds with the macrocycle's backbone and CypD were observed along with a cation-n interaction. […] The benzyl group on the piperidine ring altered the conformation of the macrocycle to open up two new hydrogen bonding interactions with CypD. […] This improvement in specificity compared to JOMBtrans signified that more CypD specific compounds can be garnered by derivatization into the S2 pocket.

[2] = test system: 10 other cyclophilins with reported prolyl isomerase activity; test: cyclophilin specificity screen: CypD against the other cyclophilins; format: biochemical; settings: result in words
Source text: The selectivity of a compound described herein in inhibiting the activity of a first cyclophilin (e.g., CypD) over a second cyclophilin may be measured by the quotient of the IC50 value of the compound in inhibiting the activity of the second cyclophilin over the IC50 value of the compound in inhibiting the activity of the first cyclophilin. The selectivity of a compound described herein in modulating the activity of a first cyclophilin over a second cyclophilin may also be measured by the quotient of the Kd value of an adduct of the compound and the second cyclophilin over the Kd value of an adduct of the compound and the first cyclophilin (e.g., CypD). […] In certain embodiments, selectivity for inhibiting a first cyclophilin over other cyclophilins is measured by Surface Plasmon Resonance (SPR) assays as disclosed in the Examples.
Following the synthesis of the indicated library members, in vitro inhibition (IC50) assays of these hits were conducted to obtain IC50 inhibitory data. For the IC50 assays, a chymotrypsin coupled PPIase assay using Suc-AAPF-AMC as the peptide substrate was used, whereby isomerization of a peptide substrate Suc-AAPF-AMC from the cis to trans conformation allowed for proteolysis via excess a-chymotrypsin, releasing the C-terminal coumarin fluorophore.
Subsequently, to determine if the compounds could both access the S2 pocket and display CypD specificity, JOMBtrans and compound 49 were screened against the 10 other cyclophilins with reported prolyl isomerase activity. […] Co-crystal structures of JOMBtrans and 49 were solved with CypD.

specificity / selectivity profile for CypD (in words) [2]: improvement in specificity for CypD
SMILES: NCCOCCNC(=O)[C@@H]1CCNC(=O)/C=C/C(=O)N2CCC[C@H](C2)C(=O)N[C@@H](Cc2ccc(C(=O)c3ccccc3)cc2)C(=O)NCc2ccccc2CC(=O)N1 [compound 27]
inhibition of PPWD1 [1]: Almost complete ablation of inhibition profiles

— patent US20230117680A1, “CYCLOPHILIN D INHIBITORS AND USES THEREOF” (The Broad Institute, Inc., priority 2019, published 2023)
